According to patent US20100179158A1, “INHIBITORS OF CYCLIC AMP PHOSPHODIESTERASES” (priority 2007, published 2010):
Entries after “also recorded” stand apart in the source; their conditions may differ.

How the values were obtained:
[1] = molecular target: T1, PDE4A5 (Rattus norvegicus, UniProt P54748); experiment: cAMP assay in yeast strain expressing PDE4A5; type: cell-based
T1 construct: targets used in the assays are full-length proteins (as opposed to simply the catalytic domain); expressed in transfected cells; host or cells: Schizosaccharomyces pombe, gene integrated at the cgs2 locus
T1 sequence (P54748 1-844): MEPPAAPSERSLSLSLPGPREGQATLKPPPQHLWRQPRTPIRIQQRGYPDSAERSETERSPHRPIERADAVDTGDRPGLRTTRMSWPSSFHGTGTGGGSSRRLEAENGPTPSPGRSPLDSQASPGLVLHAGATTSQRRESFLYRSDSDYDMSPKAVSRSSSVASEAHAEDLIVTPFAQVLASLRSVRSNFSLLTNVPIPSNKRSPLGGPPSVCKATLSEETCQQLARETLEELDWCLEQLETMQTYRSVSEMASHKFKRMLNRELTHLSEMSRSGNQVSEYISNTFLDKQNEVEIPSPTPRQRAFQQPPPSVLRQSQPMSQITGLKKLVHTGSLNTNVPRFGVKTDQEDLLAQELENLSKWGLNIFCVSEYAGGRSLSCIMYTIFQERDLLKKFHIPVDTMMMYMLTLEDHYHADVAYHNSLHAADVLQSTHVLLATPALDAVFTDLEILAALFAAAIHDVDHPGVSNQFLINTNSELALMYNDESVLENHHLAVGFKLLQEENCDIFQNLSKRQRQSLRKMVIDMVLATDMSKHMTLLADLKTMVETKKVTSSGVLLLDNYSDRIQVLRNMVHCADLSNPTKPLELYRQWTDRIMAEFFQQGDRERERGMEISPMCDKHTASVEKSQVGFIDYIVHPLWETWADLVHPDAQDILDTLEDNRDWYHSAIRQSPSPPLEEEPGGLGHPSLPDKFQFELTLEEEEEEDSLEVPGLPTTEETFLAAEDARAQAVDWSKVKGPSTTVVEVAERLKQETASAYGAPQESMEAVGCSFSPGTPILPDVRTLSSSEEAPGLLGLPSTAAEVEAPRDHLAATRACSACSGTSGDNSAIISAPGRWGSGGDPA

[2] = molecular target: T2, PDE4A1 (Mus musculus, UniProt O89084); experiment: IC50 on PDE4A1; type: biochemical, murine; settings: read-out: IC50, PDE 4A1
T2 construct: targets used in the assays are full-length proteins (as opposed to simply the catalytic domain); expressed in transfected cells; host or cells: Schizosaccharomyces pombe, gene integrated at the cgs2 locus
T2 sequence (O89084 1-610 isoform O89084-2): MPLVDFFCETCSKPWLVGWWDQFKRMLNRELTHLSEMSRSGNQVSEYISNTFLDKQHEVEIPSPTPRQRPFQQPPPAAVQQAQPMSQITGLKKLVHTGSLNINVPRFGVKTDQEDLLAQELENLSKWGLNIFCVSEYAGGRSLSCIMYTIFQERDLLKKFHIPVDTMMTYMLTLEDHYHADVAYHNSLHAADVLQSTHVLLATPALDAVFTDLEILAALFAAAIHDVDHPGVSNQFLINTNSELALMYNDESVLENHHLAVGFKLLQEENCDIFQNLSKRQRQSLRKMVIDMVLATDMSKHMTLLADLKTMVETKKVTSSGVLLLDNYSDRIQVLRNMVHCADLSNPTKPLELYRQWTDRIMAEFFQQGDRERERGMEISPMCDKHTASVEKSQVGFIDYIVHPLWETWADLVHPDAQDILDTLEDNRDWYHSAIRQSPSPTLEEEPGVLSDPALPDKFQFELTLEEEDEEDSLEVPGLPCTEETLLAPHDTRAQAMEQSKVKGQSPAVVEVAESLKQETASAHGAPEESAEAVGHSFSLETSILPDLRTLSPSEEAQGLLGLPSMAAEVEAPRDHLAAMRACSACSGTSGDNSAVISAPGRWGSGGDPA

[3] = molecular target: T3, PDE4D3 (Homo sapiens, UniProt Q08499); experiment: cAMP assay in yeast strain expressing PDE4D3; type: cell-based
T3 construct: targets used in the assays are full-length proteins (as opposed to simply the catalytic domain); expressed in transfected cells; host or cells: Schizosaccharomyces pombe, gene integrated at the cgs2 locus

[4] = molecular target: T2, PDE4A1; experiment: cAMP assay in yeast strain expressing PDE4A1; type: cell-based, murine
[5] = molecular target: T4, PDE4B3 (Mus musculus, UniProt Q8VBU5); experiment: cAMP assay in yeast strain expressing PDE4B3; type: cell-based, murine
T4 construct: targets used in the assays are full-length proteins (as opposed to simply the catalytic domain); expressed in transfected cells; host or cells: Schizosaccharomyces pombe, gene integrated at the cgs2 locus
T4 sequence (Q8VBU5 1-721): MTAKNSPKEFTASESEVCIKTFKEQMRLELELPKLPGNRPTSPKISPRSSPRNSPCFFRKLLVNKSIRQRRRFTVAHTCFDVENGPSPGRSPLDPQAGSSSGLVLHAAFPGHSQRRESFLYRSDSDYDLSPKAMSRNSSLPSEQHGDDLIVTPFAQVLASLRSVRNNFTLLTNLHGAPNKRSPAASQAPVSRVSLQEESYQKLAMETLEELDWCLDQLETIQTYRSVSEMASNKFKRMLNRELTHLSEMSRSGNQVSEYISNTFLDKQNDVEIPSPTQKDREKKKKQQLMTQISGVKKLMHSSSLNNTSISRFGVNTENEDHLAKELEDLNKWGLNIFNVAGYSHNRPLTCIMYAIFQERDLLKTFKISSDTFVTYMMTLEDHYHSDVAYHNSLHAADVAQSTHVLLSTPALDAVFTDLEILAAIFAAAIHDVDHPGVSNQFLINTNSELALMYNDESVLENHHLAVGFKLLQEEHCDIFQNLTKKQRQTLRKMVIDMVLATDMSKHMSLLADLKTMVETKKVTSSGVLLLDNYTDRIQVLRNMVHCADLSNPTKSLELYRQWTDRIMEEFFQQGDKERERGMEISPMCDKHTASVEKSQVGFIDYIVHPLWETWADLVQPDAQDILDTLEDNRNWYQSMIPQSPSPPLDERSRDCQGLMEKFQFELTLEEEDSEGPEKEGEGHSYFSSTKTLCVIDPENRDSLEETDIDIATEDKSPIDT

[6] = test system: PDE4A, PDE4B, PDE4D, PDE7A; experiment: Overall PDE inhibitor profile from the yeast assays (table footnotes, summary); type: cell-based
Description: PDE inhibitors were identified using methods described herein, such as high throughput drug screens on genetically engineered fission yeast strains that express drug targets (e.g., PDE4A and/or PDE4B, which are anti-inflammatory targets). PDE inhibitors were identified based on their ability to stimulate growth and compounds were identified because they were effective in live cells. In addition, targets used in the assays are full-length proteins (as opposed to simply the catalytic domain) and the assay used included a built-in toxicity test, permeability test and stability test. The inhibitors identified display a very high degree of target specificity. Compounds identified include inhibitors that act on two of three PDE4 family enzymes and inhibitors that act on combinations of PDE4 and PDE7 strains. […] Limited inhibition of PDE4D by a PDE inhibitor is desirable, in view of the fact that inhibition of PDE4D causes emesis and cardiac arrhythmias. Subtype specificity was confirmed by means of cAMP assays.
Cells were pregrown in EMM medium [MP Biomedicals (Solon, OH), 3% glucose, filter-sterilized to avoid carmelization, which would introduce variability into the optical density of the medium] containing from 0 mM to 2.5 mM cAMP (or either 0.5 mM or 1.0 mM cGMP). This was to repress expression of the fbp1-ura4 reporter prior to exposure of cells to 5FOA medium. Cells were grown at 30° C. to exponential phase (approximately 10^7 cells/ml). Cells were collected by centrifugation and resuspended in 5FOA medium, and 25 μl were transferred to 384-well microtiter dishes (untreated, with flat clear bottoms) that had been pre-filled with 25 μl 5FOA medium and pre-pinned with 100 nl of compounds (stock solutions were generally 10 mM). Starting cell concentrations ranged from 0.5×10^5 to 4×10^5 cells/ml depending on the screening strain. […] Other positive control dishes contained 5 mM cAMP in the 5FOA medium for PDEs that lack appropriate control compounds. Cultures were grown for 48 hours at 30° C., sealed in an airtight container with moist paper towels to prevent evaporation. Optical densities (OD600) of cultures were measured using a microplate reader. Bioinformatic analysis of the results to determine composite Z scores was performed as previously described (1, 3).

[7] = molecular target: T3, PDE4D3; experiment: IC50 on PDE4D3; type: biochemical; settings: read-out: IC50, PDE 4D3
[8] = molecular target: T5, PDE4D2 (Homo sapiens, UniProt Q08499); experiment: cAMP assay in yeast strain expressing PDE4D2; type: cell-based
T5 construct: targets used in the assays are full-length proteins (as opposed to simply the catalytic domain); expressed in transfected cells; host or cells: Schizosaccharomyces pombe
T5 sequence (Q08499 303-809): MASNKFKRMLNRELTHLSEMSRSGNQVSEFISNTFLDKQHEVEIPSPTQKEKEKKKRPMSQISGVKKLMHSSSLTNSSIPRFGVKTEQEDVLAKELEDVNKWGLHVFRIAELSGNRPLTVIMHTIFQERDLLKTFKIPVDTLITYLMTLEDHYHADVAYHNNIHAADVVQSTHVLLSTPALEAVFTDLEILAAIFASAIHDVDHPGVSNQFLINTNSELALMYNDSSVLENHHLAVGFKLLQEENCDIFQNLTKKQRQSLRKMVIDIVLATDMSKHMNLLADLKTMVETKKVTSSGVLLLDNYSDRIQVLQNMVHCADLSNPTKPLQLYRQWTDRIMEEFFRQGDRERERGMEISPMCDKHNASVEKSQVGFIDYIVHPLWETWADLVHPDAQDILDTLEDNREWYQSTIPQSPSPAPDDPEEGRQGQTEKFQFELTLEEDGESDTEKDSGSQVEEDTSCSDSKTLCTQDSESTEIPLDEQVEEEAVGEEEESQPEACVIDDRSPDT

T3 sequence (Q08499 1-673 isoform Q08499-2): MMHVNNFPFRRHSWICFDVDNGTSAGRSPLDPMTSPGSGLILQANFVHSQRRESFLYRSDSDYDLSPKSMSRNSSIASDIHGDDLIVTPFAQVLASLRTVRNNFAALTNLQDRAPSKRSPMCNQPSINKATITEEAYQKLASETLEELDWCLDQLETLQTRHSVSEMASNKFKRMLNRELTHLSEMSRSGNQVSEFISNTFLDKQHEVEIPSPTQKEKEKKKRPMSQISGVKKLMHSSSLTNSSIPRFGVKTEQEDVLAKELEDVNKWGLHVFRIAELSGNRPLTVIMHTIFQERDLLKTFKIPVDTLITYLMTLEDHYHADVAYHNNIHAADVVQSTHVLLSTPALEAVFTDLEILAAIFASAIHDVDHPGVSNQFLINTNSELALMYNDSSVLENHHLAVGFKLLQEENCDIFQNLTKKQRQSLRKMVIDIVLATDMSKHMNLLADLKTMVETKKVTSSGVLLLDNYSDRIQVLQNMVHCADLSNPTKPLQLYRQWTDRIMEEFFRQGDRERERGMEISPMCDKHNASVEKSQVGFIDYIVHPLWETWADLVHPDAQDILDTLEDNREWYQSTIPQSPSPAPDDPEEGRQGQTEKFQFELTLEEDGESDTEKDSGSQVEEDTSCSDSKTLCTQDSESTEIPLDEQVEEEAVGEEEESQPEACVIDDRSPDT

Cc1cc(C)nc(SCCS(=O)(=O)c2ccc(C(C)(C)C)cc2)n1 [Compound 26]
cAMP Response (% rolipram), PDE 4A5 [1]: 57.30 % rolipram | IC50 [2]: 500 nM | cAMP Response (% rolipram), PDE 4D3 [3]: 14.00 % rolipram | cAMP Response (% rolipram), PDE 4A1 [4]: 96.00 % rolipram | cAMP Response (% rolipram), PDE 4B3 [5]: 92.00 % rolipram | PDE inhibitor profile in words (table footnote / summary) [6]: effective PDE4A/4B inhibitor that exhibits limited/essentially no inhibition of PDE4D; also recorded: effective PDE4A/4B inhibitor; also recorded: little or no inhibition of PDE4D; also recorded: (1) Strong PDE4A, 4B inhibitor | IC50 [7]: 500 nM | cAMP Response (% rolipram), PDE 4D2 [8]: ND ND ND 17.00 ND % rolipram
